In patent publication US9850281B2, “Cladosporium peptides” (Circassia Limited, priority 2012, dated 2017):
Where no end group is shown, it is not given here. [ ]: non-standard residue; d: D form. Nle = CCCC[C@H](N)C(=O)O

Experiments:
[1] = system: Peripheral blood mononuclear cells (PBMCs); experiment: Cytokine release assay (multiplex bead assay IL-10, IL-13, IFN-g) on PBMCs of mould allergic subjects; type: cell-based, human; details: 50 mould allergic subjects; for cytokine response in the population (in words): summary of Tables 8-10; for % responders: cytokine release greater than 50 pg/ml in one or more of IL-13, IL-10 and IFN-g, polypeptide 100 μg/ml, 5 days
Procedure: Polypeptides for use in this assay were manufactured at small scale (approximately 10 mg batch size, non-GMP). […] Polypeptides were added to wells in a volume of 100 μl containing polypeptides at a concentration of 200 μg/ml, such that subsequent addition of 100 μl of cells would create a final assay concentration of 100 μg/ml.
Peripheral blood mononuclear cells (PBMCs) were isolated from heparinised blood by Ficoll density gradient centrifugation. A 100 μl aliquot of a 5×10^6 cell/ml PBMC suspension was then added to each well and the plates placed in a humidified 5% CO2 incubator at 37° C. for 5 days. Following stimulation, culture supernatants (100 μl) were harvested for testing by multiplex bead assay.
Multiplex cytokine bead assays (IL-10, IL-13, Interferon gamma (IFN-g)) were performed on thawed culture supernatants according to the manufacturer's instructions. Single measurements were performed for each culture supernatant sample. After completion of the multiplex assay, individual cytokine levels were determined by interpolation from the standard curve generated in the assay. A positive result was taken as a cytokine release of greater than 50 pg/ml in one or more of the IL-13, IL-10 and IFN-g assays. The number of responders out of 50 mould allergic subjects tested was calculated for each polypeptide for the three cytokines.

[2] = system: Peripheral blood mononuclear cells (PBMCs); experiment: as above; type: cell-based, human; details: 50 mould allergic subjects, polypeptide 100 μg/ml, 5 days

Substance | cytokine response in the population (in words) [1] | % responders [1] [%] | % responders (IFN-g release greater than 100 pg/ml) [2] [%]
AEVYQKLKALAKKTYGQ [Alt13A] | top performing | 86 | –
AEVYQKLKSLTKK [Cla16] | showed responses in the population | 36 | 16
ANYTQTKTVSIRL [Cla29] | showed responses in the population | 48 | 28
GGYKAAVRPT-Nle-LE (GGYKAAVRPT[Nle]LE) [Cla35A] | increased response compared to the polypeptide having the sequence of Cla35 | 48 | –
GGYKAAVRPTMLE [Cla35] | showed responses in the population | 34 | 28
GHHFKERGTGSLVIT [Cla26] | showed responses in the population | 44 | 28
GLHFRERKTGSLVIT [Alt21] | – | 38 | –
GWGV-Nle-VSHRSGET (GWGV[Nle]VSHRSGET) [Alt14A] | top performing | 56 | –
GWGVMVSHRSGET [Alt14] | top performing | 44 | –
GYTGKIKIA-Nle-DVASSE (GYTGKIKIA[Nle]DVASSE) [Alt15A] | top performing | 42 | –
GYTGKIKIAMDVASSE [Alt15] | top performing | 56 | –
KLWHS-Nle-IP-Nle-GRDAK (KLWHS[Nle]IP[Nle]GRDAK) [Alt24A] | – | 40 | –
KLWHSMIP-Nle-GRDAK (KLWHSMIP[Nle]GRDAK) [Alt24C] | – | 36 | –
KLWHSMIPMGRDAK [Alt24] | – | 34 | –
LAITYNSRAEGAEK [Alt20] | – | 38 | –
NEWRDFARVNSISP [Alt23] | – | 40 | –
VAITYASRAQGAEK [Cla25A] | showed responses in the population | 44 | 22
WSWKIGPAIATGNT [Alt28] | top performing | 52 | –
